Source: patent US12492222B2, “Lipophilic enantiomers of desacetylglucosamine muramyl dipeptide with anti-inflammatory and growth promoting activity” (Nutrivert Inc., priority 2020, dated 2025)
Peptide text beside a SMILES is read from it.

Key:
nursery pigs = assay: Growth rate and feed conversion in freshly weaned nursery pigs fed supplemented feed; format: in vivo; details: 0.2 mg/kg feed
Method: The objective of this experiment was to evaluate if supplementation of feed with L-lactate-D-alanine-L-glutamine palmityl ester (LDPP) at 0.2 mg/kg feed increases the growth rate and/or improves the feed conversion in freshly weaned nursery pigs.
Male pigs (barrows) were used in this study. Pigs were weaned at approximately 3 weeks of age, transferred to the nursery, and randomly allotted to 24 nursery pens with 4 pigs per pen. One of 2 dietary treatments, untreated controls (feed without supplement) or LDPP-treatment (0.2 mg LDPP/kg feed), was assigned to each pen, such that 12 pens of 4 pigs were used to evaluate the effect of each diet. Premixes of the treatment compounds were added at 0.1% to mixed diets, which were then pelleted. Phase 1 diet was fed at 6 lb/pig from day 0 to approximately day 8 post-weaning. On day 8 post-weaning, pigs were switched to 12 lb/pig Phase 2 diet which expired approximately on day 18. Once the Phase 2 diet had been consumed, pigs were switched to Phase 3 diet and maintained until termination of the study on day 42. No antibiotics were added to any diet. Diets were formulated to meet or exceed all the nutrient requirements based on the 2012 NRC specifications. Pigs received diets and water ad libitum. Pigs were weighed individually on days 0 and 42 of the experiment. Feed intake per pen was monitored for the weigh period. Although individual pig weights were obtained, the pen was the experimental unit. On day 42, the study was terminated and untreated pigs were retained in the food chain while the treatment pigs were euthanized.
Pen data were converted into individual pig data by dividing by the number of pigs. For three pens in which pigs were euthanized, a time-fractional pig number was used. Body weight gain and calculated feed consumption data were analyzed by pairwise T-test. The overall (true) feed conversion for each treatment was determined by dividing total consumed feed by total weight gains of all pens of each treatment. Treatment differences in feed conversion were statistically evaluated by non-parametric Mann Whitney U test of pen feed conversion data.
For constant body weight gain analyses, the time on feed of the LDPP treated group was modeled to match the weight gain of the untreated control group. Daily body weights and weight gains were modeled by linear interpolation between weights on days 0 and 42. […] From interpolated daily body weight data, daily feed consumption was first calculated as 5% of body weight. The sum of these daily feed uptakes was then divided by the actual weighed feed uptake of each pen, and daily feed uptakes were multiplied by this fraction to arrive at the precise weighed feed uptake per pen. These calculated daily feed uptakes were used to calculate feed uptake by changed times on feed for the LDPP treatment group. Mean feed uptake of the LDPP treatment group was then calculated by subtracting for each pen the previously found day 42 and 41 and the fractional day 40 feed uptake.
Body weight gain and feed consumption data were analyzed by one-way ANOVA and Student's T-test. Differences in feed conversion rates were evaluated from pen FCR data by non-parametric Mann Whitney U test.

broiler chickens = assay: Growth rate and feed conversion in broiler chickens fed supplemented feed; format: in vivo; details: for feed conversion rate at constant body weight gain: LDPP 0.2 mg/kg feed, bacitracin 50 mg/kg feed
Method: The objective of this experiment was to evaluate if supplementation of feed with L-lactate-D-alanine-L-glutamine palmityl ester (LDPP) at 0.2 mg/kg feed increases the growth rate and/or improves the feed conversion in broiler chickens, i.e., if it promotes growth by making broiler chickens grow faster and/or require less feed for the same amount of gain in body weight. A secondary objective was to compare the effect of LDPP to that of bacitracin, an industry-standard growth promoting antibiotic.
Freshly hatched female Ross 708 broiler chickens were housed for as single flock for 21 days on a floor pen with used bedding. All chickens received crumbled untreated standard Aviagen 708 starter and grower feeds during this time, with 80% recommended crude protein and without anti-coccidial supplement. After 3 weeks, the chickens were grouped into 38 replicate floor pens of 25 chickens with fresh bedding. Chickens were fed for 24 days from day 21 through termination on day 44 standard crumbled finisher Aviagen 708 finisher feed with 100% protein and 0.0125% amprolium anti-coccidial inclusion. Feed and water were available ad libitum throughout the trial. Thirteen pens each were assigned to untreated controls (feed without supplement) and LDPP-treatment (0.2 mg LDPP/kg feed), and 12 pens were assigned to bacitracin treatment (50 mg bacitracin/kg feed). The experimental unit was the pen rather than individual chickens. Pen weights of chickens were determined on day 21 and 44. Finisher feed uptake was be recorded, and on day 44 residual feed was determined, and the experiment was terminated.
For constant time analyses of the complete 24-day duration of the feeding experiment, the overall (true) feed conversion for each treatment group was determined by dividing total consumed feed by total weight gains of all pens of each treatment group.
For constant body weight gain analyses, the time on feed of the bacitracin and LDPP treated groups was modeled to match the weight gain of the untreated control group. Based on the closely matching body weights and weight gains of standard female Ross 708 broilers, body weight gains per chicken on the last day 44 of the experiment were calculated as the 0.04781 fraction of pen body weight gain day 21-44/surviving chickens per pen. […] Similarly, feed consumption per chicken on day 44 was calculated as the 0.05867 fraction of pen feed uptake day 21-44/surviving chickens per pen. Mean feed uptake per treatment group was then calculated by subtracting the previously found fractional daily feed uptake from each pen.
Body weight gain and feed consumption data were analyzed by one-way ANOVA and Tukey […] connection for multiple comparisons. Group differences in feed conversion rates were evaluated from pen FCR data by non-parametric Mann Whitney U test.

[1] = modeled, 1,653 g constant weight gain

Compound | improvement of feed conversion rate at constant time versus untreated (nursery pigs; 42 days) [%] | feed conversion rate at constant time (nursery pigs; 42 days, total consumed feed / total weight gain, untreated 1.479) | morbidity and mortality rates between groups (nursery pigs; day 0-42) | body weight gain per pig (nursery pigs; day 0-42 (constant time)) [kg] | increase of weight gain versus untreated nursery pigs (nursery pigs; day 0-42 (constant time), control 22.076 kg) [%] | improvement of feed conversion rate at constant body weight gain versus untreated (nursery pigs; modeled constant weight gain) [%] | more rapid growth compared to controls (nursery pigs; modeled constant weight gain) [days] | feed conversion rate at constant body weight gain (nursery pigs; modeled, 22.076 kg constant weight gain) | time on feed required for weight gain identical to untreated controls (nursery pigs; modeled, 22.076 kg constant weight gain, controls 42 days) [days] | feed conversion rate at constant time (broiler chickens; 0.2 mg/kg feed, 24 days, total consumed feed / total weight gain, untreated 1.818) | morbidity and mortality rates between groups (broiler chickens; 0.2 mg/kg feed, day 21-44) | body weight gain per chicken (broiler chickens; 0.2 mg/kg feed, day 21-44 (24 days constant time)) | increase of weight gain versus untreated control chickens (broiler chickens; 0.2 mg/kg feed, day 21-44 (24 days constant time), control 1,653 g) [%] | improvement of feed conversion rate at constant body weight gain versus untreated (broiler chickens; 0.2 mg/kg feed, modeled constant weight gain) [%] | time on feed required for weight gain identical to untreated controls (broiler chickens; 0.2 mg/kg feed, modeled, 1,653 g constant weight gain, controls 24 days) [days] | feed conversion rate at constant body weight gain (broiler chickens; [1])
CCCCCCCCCCCCCCCCOC(=O)[C@H](CCC(N)=O)NC(=O)[C@@H](C)NC(=O)[C@H](C)O [LDPP, hexadecyl (2S)-5-amino-2-[[(2R)-2-[[(2S)-2-hydroxypropanoyl]amino]propanoyl]amino]-5-oxo-pentanoate] | 3.8 | 1.423 | did not differ significantly | 23.826 | 7.9 | 5.5 | 2.1 | 1.396 | 39.921 | 1.805 | did not differ significantly | 1,725 g | 4.4 | 1.7 | 23.13 | 1.787
CC[C@H](C)[C@H](N)C1=N[C@H](C(=O)N[C@@H](CC(C)C)C(=O)N[C@H](CCC(=O)O)C(=O)N[C@H](C(=O)N[C@H]2CCCCNC(=O)[C@H](CC(N)=O)NC(=O)[C@@H](CC(=O)O)NC(=O)[C@H](Cc3cnc[nH]3)NC(=O)[C@@H](Cc3ccccc3)NC(=O)[C@H]([C@@H](C)CC)NC(=O)[C@@H](CCCN)NC2=O)[C@@H](C)CC)CS1 [bacitracin, reference compound] (HELM PEPTIDE1{[CC[C@H](C)[C@H](N)C1=N[C@H](C(=O)[*:2])CS1].L.[dE].I.K.[NCCC[C@@H](N[*:1])C(=O)[*:2]].I.[dF].H.[dD].N}$PEPTIDE1,PEPTIDE1,5:R3-11:R2$$$V2.0) | – | – | – | – | – | – | – | – | – | – | – | – | – | – | – | 1.827
